Measurements reported in ChEMBL document CHEMBL1250444, “Nitric oxide activates TRP channels by cysteine S-nitrosylation” (Nat Chem Biol, 2006).
Numbering of substitutions follows the chain as printed. Calls of active or inactive are those of the source. The rule behind the calls is not given here.

What was measured:
[1] = molecular target: T1, Short transient receptor potential channel 5 (Homo sapiens) (UniProt Q9UL62); assay: Induction of TRPC5 S-nitrosylation in chicken DT40 cells assessed as increase in Ca2+ level from extracellular space at 30 uM in presence of PLC-beta inhibitor U73122; assay type: cell-based
T1 sequence (whole entry): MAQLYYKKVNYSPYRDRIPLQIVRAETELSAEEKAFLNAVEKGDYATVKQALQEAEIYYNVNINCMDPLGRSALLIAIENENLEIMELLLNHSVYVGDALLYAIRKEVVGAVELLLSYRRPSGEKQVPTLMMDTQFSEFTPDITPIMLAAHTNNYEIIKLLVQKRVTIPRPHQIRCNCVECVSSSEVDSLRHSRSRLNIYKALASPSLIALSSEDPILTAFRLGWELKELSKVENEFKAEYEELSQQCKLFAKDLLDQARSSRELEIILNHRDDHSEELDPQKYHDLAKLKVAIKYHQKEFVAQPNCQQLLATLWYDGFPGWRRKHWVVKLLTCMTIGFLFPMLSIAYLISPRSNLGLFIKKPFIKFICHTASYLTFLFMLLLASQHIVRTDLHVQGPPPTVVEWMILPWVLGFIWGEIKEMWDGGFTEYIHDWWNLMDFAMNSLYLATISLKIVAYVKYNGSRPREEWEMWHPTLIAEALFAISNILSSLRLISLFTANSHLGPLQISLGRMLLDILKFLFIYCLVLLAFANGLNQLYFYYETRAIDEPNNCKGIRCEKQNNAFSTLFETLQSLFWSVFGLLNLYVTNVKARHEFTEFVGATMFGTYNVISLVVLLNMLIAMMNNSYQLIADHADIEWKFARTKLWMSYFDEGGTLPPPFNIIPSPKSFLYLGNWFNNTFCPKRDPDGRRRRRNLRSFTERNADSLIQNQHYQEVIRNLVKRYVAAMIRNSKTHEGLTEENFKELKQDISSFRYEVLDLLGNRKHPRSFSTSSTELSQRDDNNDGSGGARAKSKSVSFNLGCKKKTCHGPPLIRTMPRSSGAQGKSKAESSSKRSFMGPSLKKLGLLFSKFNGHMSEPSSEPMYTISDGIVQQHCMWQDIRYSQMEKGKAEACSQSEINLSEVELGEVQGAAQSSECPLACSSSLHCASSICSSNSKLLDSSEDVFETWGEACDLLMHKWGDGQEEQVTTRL

[2] = system: T2, Short transient receptor potential channel 5 (Homo sapiens), Q9UL62 [C553S]; assay: Decrease in TRPC5 C553S mutant S-nitrosylation in HEK cells assessed as inhibition of incorporation of DTNB-2Bio at 30 uM relative to control; assay type: cell-based; conditions: HEK293
T2 sequence (whole entry): T1 sequence (whole entry) with C553S

[3] = molecular target: Transient receptor potential cation channel subfamily V member 4 (Homo sapiens) (UniProt Q9HBA0); assay: Activation of TRPV4 in HEK cells assessed as increase in Ca2+ level from extracellular space at 10 uM; assay type: cell-based; conditions: HEK293
HEK293 [4] = assay: Activation of rat TRPV1 Cys621 mutant expressed in HEK cells assessed as increase in Ca2+ level from extracellular space at 10 uM; assay type: cell-based
[5] = molecular target: T1, Short transient receptor potential channel 5 (Homo sapiens); assay: Activation of TRPC5 expressed in BAEC expressing TRPC5 siRNA assessed as increase in Ca2+ level from extracellular space at 100 uM
[6] = molecular target: T1, Short transient receptor potential channel 5 (Homo sapiens); assay: Induction of S-nitrosylation of TRPC5 in HEK cells assessed as increase in Ca2+ level from extracellular space at 1 mM in presence of ascorbic acid; assay type: cell-based; conditions: HEK293
[7] = molecular target: T1, Short transient receptor potential channel 5 (Homo sapiens); assay: Induction of S-nitrosylation of TRPC5 in HEK cells assessed as inhibition of incorporation of DTNB-2Bio at 5 mM; assay type: cell-based; conditions: HEK293
[8] = molecular target: T1, Short transient receptor potential channel 5 (Homo sapiens); assay: Induction of S-nitrosylation of TRPC5 in HEK cells assessed as inhibition of incorporation of DTNB-2Bio at 300 uM; assay type: cell-based; conditions: HEK293
HEK293 [9] = assay: Activation of rat TRPV1 Cys621 mutant expressed in HEK cells assessed as increase in Ca2+ level from extracellular space at 0.1 to 1 mM; assay type: cell-based

Chain of Transient receptor potential cation channel subfamily V member 4 (Homo sapiens) (Q9HBA0 whole entry): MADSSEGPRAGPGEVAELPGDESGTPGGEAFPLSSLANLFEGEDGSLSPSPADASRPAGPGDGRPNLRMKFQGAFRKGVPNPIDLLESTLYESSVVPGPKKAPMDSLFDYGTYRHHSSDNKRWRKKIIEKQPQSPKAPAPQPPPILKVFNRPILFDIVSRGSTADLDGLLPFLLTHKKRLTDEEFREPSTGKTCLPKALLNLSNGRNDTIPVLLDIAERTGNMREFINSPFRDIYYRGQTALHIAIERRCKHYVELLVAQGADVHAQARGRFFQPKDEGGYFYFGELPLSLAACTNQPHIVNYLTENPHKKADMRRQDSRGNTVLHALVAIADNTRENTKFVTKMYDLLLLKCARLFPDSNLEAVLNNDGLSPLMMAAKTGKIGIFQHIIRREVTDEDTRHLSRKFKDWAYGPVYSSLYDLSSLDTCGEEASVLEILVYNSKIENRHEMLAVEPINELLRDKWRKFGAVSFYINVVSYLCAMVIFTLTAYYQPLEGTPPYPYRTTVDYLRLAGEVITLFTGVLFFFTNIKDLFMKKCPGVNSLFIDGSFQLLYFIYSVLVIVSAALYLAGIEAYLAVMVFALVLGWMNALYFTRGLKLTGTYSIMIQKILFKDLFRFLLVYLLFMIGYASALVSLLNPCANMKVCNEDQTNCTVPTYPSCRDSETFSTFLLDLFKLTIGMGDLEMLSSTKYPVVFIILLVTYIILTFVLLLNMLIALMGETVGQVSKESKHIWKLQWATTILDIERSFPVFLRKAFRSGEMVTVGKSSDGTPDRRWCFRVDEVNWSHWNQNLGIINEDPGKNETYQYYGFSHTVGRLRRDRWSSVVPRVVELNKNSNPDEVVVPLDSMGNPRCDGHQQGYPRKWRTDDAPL

Activity [1]	Activity [2]	Activity [3]	Activity [5]	Activity [6]	Activity [7]	Activity [8]	Structure (SMILES)	Activity (HEK293 [4])	Activity (HEK293 [9])
Active	Active	Active	inactive				O=[N+]([O-])c1ccc(SSc2ccc([N+](=O)[O-])cn2)nc1	inactive	
				inactive	Active	Active	CC(=O)N[C@@H](C(=O)O)C(C)(C)SN=O (racemic)		inactive
